# How the values were obtained:
# [1] = Solubility at pH 6.5; assay type: physicochemical
# [2] = system: 24 off-target liabilities (e.g. ion channels, G-protein receptors); assay: 24 off-target liability screen; conditions: tested by AbbVie
# [3] = system: C. parvum Iowa strain; assay: C. parvum infection in mice (beige/SCID mouse model); conditions: oral gavage 20 mg/kg 8 AM and 40 mg/kg 5 PM, days 5-14 after infection; each time point except Days 0 and 3; p≦0.05
# [4] = Cell toxicity in HepG2; assay type: cell-based; conditions: human, HepG2 cells (hepatocellular carcinoma); Table 4
# Protocol: All compounds were assayed for inhibition of TgCDPK1 and CpCDPK1 and on the small-gatekeeper (Thr) human kinases, Src and Abl. Human cell toxicity was evaluated in two human cell lines, HepG2 (hepatocellular carcinoma) and CRL8155 (lymphoblast, spleen). hERG inhibition has been associated with long Q-T syndrome (cardiotoxicity), and the compounds were evaluated for hERG inhibitory activity.
# [5] = system: 80 human protein kinases (hPKs); assay: AbbVie panel of 80 human protein kinases; assay type: biochemical; conditions: at levels up to 3 μM; tested by AbbVie
# [6] = target: Kdr (Homo sapiens (Human), UniProt P35968); assay: Kinase panel selectivity: Kdr; assay type: biochemical
# [7] = Oral availability (comparison of compound 39 and compound 9); assay type: in vivo; conditions: compared with compound 9 (1294)
# [8] = target: hERG (Homo sapiens (Human), UniProt Q12809); assay: biochemical; assay type: binding
# [9] = Cytotoxicity against CRL8155 cell line; assay type: cell-based; conditions: human, CRL8155 cells (lymphoblast, spleen)
# [10] = Stability (comparison of compound 39 and compound 9)
# [11] = system: T. gondii Type 1 RH strain tachyzoites; assay: T. gondii infection in mice; assay type: in vivo; conditions: CF-1 mice, peritoneal lavage day 8
# Text: 1×10^5 T. gondii Type 1 RH strain tachyzoites expressing YFP were inoculated i.p. into 4-5 wk old female CF-1 mice (n=4). […] On day 8, the mice were killed, and underwent peritoneal lavage. T. gondii were enumerated via fluorescent microscopy and plotted, per mouse.
# [12] = system: C. parvum; assay: Inhibition of C. parvum proliferation; assay type: cell-based; conditions: Cryptosporidium parvum; Table 4; read-out: Inhibit Parasite Prolif. (EC50, μM) C. parvum
# [13] = system: P-gp; assay: Diffusion across the MDCK-PGP monolayer; assay type: in vitro ADME; conditions: dog, MDCK-MDR1; predicts CNS penetration
# [14] = target: Prkcn (Homo sapiens (Human), UniProt O94806); assay: Kinase panel selectivity: Prkcn; assay type: biochemical
# Prkcn, sequence (O94806 whole entry, looked up, species assumed): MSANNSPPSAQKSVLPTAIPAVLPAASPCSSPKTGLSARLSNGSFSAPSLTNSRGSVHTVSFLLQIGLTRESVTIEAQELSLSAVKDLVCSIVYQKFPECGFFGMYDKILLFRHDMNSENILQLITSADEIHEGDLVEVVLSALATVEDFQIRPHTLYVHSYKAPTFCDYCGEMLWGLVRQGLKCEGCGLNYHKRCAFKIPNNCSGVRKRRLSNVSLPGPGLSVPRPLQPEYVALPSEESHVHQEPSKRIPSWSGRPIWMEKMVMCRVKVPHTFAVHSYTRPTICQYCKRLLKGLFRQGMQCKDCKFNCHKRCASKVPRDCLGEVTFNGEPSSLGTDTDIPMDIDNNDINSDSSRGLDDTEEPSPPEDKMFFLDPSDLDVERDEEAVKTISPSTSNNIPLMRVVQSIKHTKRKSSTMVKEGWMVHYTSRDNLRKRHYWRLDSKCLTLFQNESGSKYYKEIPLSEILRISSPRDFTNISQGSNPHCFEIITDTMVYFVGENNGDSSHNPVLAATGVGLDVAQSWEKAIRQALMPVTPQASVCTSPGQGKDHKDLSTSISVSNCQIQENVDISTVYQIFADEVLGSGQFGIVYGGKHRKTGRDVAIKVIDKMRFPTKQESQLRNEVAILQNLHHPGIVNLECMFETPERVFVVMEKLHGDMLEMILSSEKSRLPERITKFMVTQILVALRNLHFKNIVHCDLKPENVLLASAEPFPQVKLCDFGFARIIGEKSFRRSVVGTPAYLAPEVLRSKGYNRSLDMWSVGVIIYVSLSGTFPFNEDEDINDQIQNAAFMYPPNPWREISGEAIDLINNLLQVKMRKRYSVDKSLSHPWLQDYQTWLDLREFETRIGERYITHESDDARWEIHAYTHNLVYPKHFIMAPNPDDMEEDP
# Kdr, sequence (P35968 20-1356, species assumed): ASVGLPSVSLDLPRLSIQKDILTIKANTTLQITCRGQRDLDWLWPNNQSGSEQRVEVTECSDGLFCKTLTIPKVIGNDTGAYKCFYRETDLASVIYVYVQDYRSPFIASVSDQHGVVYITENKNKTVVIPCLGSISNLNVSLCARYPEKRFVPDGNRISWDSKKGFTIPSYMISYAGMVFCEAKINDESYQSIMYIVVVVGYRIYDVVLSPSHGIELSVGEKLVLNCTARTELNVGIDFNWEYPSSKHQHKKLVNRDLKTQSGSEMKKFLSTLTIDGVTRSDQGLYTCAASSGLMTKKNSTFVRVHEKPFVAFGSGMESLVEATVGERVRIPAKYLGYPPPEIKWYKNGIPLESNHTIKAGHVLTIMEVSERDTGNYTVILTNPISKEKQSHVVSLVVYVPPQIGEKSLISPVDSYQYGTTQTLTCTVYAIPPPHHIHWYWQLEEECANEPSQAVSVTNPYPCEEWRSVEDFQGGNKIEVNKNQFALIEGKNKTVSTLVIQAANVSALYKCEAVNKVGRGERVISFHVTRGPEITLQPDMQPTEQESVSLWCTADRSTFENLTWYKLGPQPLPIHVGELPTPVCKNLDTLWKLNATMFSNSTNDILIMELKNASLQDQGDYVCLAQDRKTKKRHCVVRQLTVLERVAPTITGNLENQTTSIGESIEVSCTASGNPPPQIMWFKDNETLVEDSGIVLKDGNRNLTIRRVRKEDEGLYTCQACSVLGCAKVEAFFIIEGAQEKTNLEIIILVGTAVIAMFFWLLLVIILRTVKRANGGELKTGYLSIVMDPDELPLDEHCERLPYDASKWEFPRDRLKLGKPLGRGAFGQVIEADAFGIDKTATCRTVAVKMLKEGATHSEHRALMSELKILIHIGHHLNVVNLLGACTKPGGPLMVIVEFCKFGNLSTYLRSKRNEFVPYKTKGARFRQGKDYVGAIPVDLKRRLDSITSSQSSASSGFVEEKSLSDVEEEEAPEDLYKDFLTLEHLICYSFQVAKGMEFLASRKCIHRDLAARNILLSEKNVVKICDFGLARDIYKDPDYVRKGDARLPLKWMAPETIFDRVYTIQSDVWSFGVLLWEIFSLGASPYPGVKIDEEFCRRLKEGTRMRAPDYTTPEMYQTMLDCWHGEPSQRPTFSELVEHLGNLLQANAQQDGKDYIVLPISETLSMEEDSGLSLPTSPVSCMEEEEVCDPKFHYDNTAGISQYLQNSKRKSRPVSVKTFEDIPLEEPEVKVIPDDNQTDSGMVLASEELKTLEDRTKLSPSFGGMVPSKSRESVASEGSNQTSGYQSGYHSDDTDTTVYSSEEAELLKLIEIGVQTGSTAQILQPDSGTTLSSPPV
# hERG, sequence (Q12809 whole entry): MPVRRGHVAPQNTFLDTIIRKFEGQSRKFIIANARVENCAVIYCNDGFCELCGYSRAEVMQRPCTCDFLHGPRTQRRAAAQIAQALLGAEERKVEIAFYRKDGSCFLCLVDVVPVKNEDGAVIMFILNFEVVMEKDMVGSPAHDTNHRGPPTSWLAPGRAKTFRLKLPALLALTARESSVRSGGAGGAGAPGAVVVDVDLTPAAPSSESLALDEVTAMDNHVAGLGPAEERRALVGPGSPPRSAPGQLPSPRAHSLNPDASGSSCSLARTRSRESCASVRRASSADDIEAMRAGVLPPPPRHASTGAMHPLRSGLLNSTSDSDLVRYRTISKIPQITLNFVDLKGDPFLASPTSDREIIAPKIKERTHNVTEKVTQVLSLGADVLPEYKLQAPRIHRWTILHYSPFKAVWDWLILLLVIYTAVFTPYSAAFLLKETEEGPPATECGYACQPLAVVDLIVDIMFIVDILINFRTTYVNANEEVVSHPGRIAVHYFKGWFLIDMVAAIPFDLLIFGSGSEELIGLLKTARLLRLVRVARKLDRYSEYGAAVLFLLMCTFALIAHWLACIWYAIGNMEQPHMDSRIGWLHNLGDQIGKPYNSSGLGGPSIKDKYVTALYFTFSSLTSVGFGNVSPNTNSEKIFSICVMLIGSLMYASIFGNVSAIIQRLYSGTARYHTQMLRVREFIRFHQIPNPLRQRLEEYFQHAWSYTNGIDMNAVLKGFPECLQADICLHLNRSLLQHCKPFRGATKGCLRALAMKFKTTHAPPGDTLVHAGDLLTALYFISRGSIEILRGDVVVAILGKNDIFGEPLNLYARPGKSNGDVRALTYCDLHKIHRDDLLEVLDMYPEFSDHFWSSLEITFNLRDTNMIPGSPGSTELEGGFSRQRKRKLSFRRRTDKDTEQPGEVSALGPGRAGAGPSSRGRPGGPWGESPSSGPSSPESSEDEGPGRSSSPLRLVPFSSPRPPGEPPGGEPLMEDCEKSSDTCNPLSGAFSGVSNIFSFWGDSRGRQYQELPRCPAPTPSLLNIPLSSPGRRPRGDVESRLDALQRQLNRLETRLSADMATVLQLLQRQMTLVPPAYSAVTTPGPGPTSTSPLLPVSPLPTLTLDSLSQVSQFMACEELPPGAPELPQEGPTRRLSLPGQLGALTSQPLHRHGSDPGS
smiles,measurement,setting,value
"CCOc1ccc2cc(-c3nn(C(C)(C)C)c(N)c3C(N)=O)cnc2c1 [Compound 39, 5-amino-1-(tert-butyl)-3-(7-ethoxyquinolin-3-yl)-1H-pyrazole-4-carboxamide]",solubility (in words),[1],good solubility
same,signal in 24 off-target liability screen,[2],no signal was detected
same,"oocysts shed in mouse stool, treated vs vehicle",[3],the difference was significant
same,EC50,[4],> 40 µM
same,inhibition of human protein kinases (panel of 80 hPKs),[5],No hPKs were inhibited
same,IC50,[6],2460 nM
same,Ki,[6],569 nM
same,oral availability (in words),[7],higher oral availability
same,hERG inhibitory activity (in words),[8],no hERG inhibitory activity
same,EC50,"[9]; Table 2, read-out: Cytotoxicity (CRL8155) EC50",> 30 µM
same,EC50,"[9]; Table 3, read-out: Cytotoxicity (CRL8155) EC50",> 30 µM
same,EC50,"[9]; Table 4, read-out: Cell toxicity (EC50, μM) CRL 8155",> 40 µM
same,stability (in words),[10],good stability
same,mean parasite burden decreased,[11]; oral gavage 5/10 mg/kg [AM/PM] for 5 d,69%
same,mean parasite burden decreased,[11]; oral gavage 20/40 mg/kg [AM/PM] for 5 d,93%
same,EC50,[12],0.05 µM
same,Papp,[13],56.3 ×10⁻⁶ cm/s
same,IC50,[14],1110 nM
same,Ki,[14],427 nM
